One series is described as follows: Lung S9 metabolism. The format is in vitro ADME, human. As to conditions: for Compound Remaining at 60 min (%): human lung S9, 1 μM compound, 1 mg/mL S9 protein, NADPH and PAPS; for Sulfate Appearance: qualitative, O-sulfate metabolite peak in human lung S9. As to the method: The time 0, 15, 30, and 60 minute samples were analyzed for parent compound by high resolution LC-MS/MS. Lung S9 fractions from human (lot 1410245) were purchased from XenoTech LLC (Lenexa, Kans.). NADPH (Sigma Aldrich, N1630) and 3-phosphoadenosine 5-phosphosulfate (PAPS) (Sigma Aldrich, A1651) were purchased from Sigma Aldrich (St. Louis, Mo.). Acetonitrile and water were obtained from VWR (Radnor, Pa.) and were of HPLC grade or better. Raloxifene and formic acid was purchased from Sigma Aldrich (St. Louis, Mo.). Lung S9 incubations were performed in a water bath at 37° C. in a 96-well polypropylene plate. […] Louis, Mo.), 3 mM magnesium chloride (Sigma Aldrich, M1028) and in the presence of 100 μM PAPS (Sigma-Aldrich, St. […] Incubation volumes consisted of 400 μL and time points were taken at 0, 15, 30, and 60 minutes by the removal of a 70 μL aliquot and dilution into 140 μL acetonitrile (0% formic acid). All samples were centrifuged at 2250 g for 10 minutes at 5° C. Supernatant (50 μL) was taken from the centrifuged samples and diluted into 100 μL HPLC water containing internal standard. The samples were run on a Dionex Ultimate 3000 Auto sampler and analyzed using a Thermo Q-Exactive High Resolution Mass Spectrometer (Thermo, Waltham, Mass.) in Full Scan mode in conjunction with an Atlantis T3 column 3 μM−2.1×50 mm (Waters Inc., 186003717). Mobile Phase A consisted of Water+0.2% formic acid and Mobile Phase B consisted of acetonitrile+0.2% formic acid. Peak integration was accomplished using Gubbs GMSU software (Gubbs Inc., Alpharetta, Ga.). For each sample, peak area ratios were calculated by dividing the analyte peak area by the internal standard peak area. For each incubation, the peak area ratios of the analytes in each t0 was set to 100%, and the peak areas ratios from the 60 minute samples were converted to percentages remaining relative to the corresponding t0. Determination of sulfate metabolite formation was made qualitatively by observation of early-eluting peak in the parent ion channel which, based on historical internal data, corresponded to the O-sulfate metabolite of each parent compound.

For a further series, the target named is human JAK1 (Homo sapiens (Human), UniProt P23458). Briefly: Co-crystal structure with JAK1. To be noted: resolution 2.28 Å. From the text:
A co-crystal structure was obtained of compound C-1 bound to human JAK1 at a resolution of 2.28 Å. […] Seven specific hydrogen bonding interactions were identified based upon a distance of 3.5 Å or less between donor and acceptor atoms. Of particular note, a hydrogen bonding interaction was identified between the carbonyl of the exocyclic amide of the compound of C-1 and the sidechain of Arg879 of JAK1. A similar interaction can be expected for the compounds of the invention.

Series [1] can be described thus: Pharmacokinetics in plasma and lung in mouse. Format: in vivo. To be noted: single oral aspiration, 0.2 mg/mL, 50 μL. As to the method: Plasma and lung concentrations of test compounds and ratios thereof were determined in the following manner. BALB/c mice from Charles River Laboratories were used in the assay. Test compounds were individually formulated in 20% propylene glycol in pH 4 citrate buffer at a concentration of 0.2 mg/mL and 50 μL of the dosing solution was introduced into the trachea of a mouse by oral aspiration. At various time points (typically 0.167, 2, 6, 24 hr) post dosing, blood samples were removed via cardiac puncture and intact lungs were excised from the mice.

In series [2] the test system is IFNγ secretion in mixed lymphocyte reaction. Briefly: Inhibition of IFNγ secretion in a mixed lymphocyte reaction assay. The format is cell-based, human. As to conditions: summary statement. As to the method:
The mixed lymphocyte reaction assay is an in-vitro assay that mimics transplant rejection. T cells from one donor are cultured with allogeneic dendritic cells from another donor. This reaction induces a cellular immune response such as IFNγ secretion. CD14+ monocytes were isolated from human whole blood (Stanford blood center) of donor A using a ficoll gradient and magnetic seperation (CD14 microbeads, Miltenyi). […] Cells were harvested, washed with media, re-suspended to 400,000 cells/ml in media and plated at 10,000 cells/well/25 μl. CD4+ T cells were freshly isolated from human whole blood (Stanford blood center) of donor B using a ficoll gradient and magnetic separation (CD4+ T cell isolation kit, Miltenyi). T cells were re-suspended to 4,000,000 cells/ml in RPMI (Life Technologies) supplemented with 10% Fetal Bovine Serum (FBS, Life Technologies), 2 mM Glutamax (Life Technologies), 25 mM HEPES (Life Technologies) and 1× Pen/Strep (Life Technologies). CD4+ T cells were mixed with the dendritic cells at 100,000 cells/well/25p. […] On day 5, supernatants were collected and measured for interferon gamma (INFγ) using enzyme linked immunosorbent assay (ELISA). Percent inhibition was determined by compound inhibitory potency against IFNγ secretion compared to vehicle treated cells. […]

human JAK1, sequence (P23458 whole entry): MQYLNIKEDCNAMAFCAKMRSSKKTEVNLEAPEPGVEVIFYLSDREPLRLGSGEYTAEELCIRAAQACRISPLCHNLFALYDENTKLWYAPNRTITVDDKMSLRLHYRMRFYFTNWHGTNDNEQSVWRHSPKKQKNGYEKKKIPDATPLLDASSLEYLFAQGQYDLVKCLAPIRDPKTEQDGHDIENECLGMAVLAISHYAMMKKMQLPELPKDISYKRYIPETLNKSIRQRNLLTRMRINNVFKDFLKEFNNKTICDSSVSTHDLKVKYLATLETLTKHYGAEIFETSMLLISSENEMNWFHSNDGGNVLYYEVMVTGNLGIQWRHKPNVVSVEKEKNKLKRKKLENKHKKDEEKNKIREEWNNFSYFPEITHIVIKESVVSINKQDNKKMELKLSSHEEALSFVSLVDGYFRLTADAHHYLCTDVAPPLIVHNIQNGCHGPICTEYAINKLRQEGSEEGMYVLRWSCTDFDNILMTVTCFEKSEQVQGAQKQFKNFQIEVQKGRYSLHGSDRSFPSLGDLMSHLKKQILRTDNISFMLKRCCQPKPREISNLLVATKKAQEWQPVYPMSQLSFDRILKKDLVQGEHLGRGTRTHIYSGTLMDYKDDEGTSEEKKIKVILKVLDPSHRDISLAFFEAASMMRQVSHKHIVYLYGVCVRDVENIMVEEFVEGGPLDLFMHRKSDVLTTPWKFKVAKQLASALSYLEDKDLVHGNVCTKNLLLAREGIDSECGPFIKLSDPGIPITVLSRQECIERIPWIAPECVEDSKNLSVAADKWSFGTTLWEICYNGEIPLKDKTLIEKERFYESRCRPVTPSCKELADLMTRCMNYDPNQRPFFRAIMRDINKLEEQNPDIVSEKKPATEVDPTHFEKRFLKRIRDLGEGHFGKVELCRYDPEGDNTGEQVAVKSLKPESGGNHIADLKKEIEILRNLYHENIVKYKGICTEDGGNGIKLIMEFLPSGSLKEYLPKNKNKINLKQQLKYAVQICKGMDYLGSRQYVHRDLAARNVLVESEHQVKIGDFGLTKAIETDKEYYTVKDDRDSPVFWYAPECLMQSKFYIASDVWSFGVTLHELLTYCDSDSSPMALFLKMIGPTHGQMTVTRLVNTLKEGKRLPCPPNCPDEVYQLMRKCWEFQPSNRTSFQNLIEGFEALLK

Consider `CCc1cc(O)ccc1-c1ccc2c(-c3nc4c([nH]3)CN(CC)[C@H](C(=O)N3CC(C)(N(C)C)C3)C4)n[nH]c2c1` [Compound 3, (S)-(3-(dimethylamino)-3-methylazetidin-1-yl)(5-ethyl-2-(6-(2-ethyl-4-hydroxyphenyl)-1H-indazol-3-yl)-4,5,6,7-tetrahydro-3H-imidazo[4,5-c]pyridin-6-yl)methanone], for which, in the series “Lung S9 metabolism”, the “Compound Remaining at 60 min (%)” value amounted to 97% and the “Sulfate Appearance” value is reported as “Yes”.

On to `CCc1cc(O)c(F)cc1-c1ccc2c(-c3nc4c([nH]3)CN(C(C)C)[C@H](C(=O)N3CC(N(C)C)C3)C4)n[nH]c2c1` [Compound C-1, (S)-(3-(dimethylamino)azetidin-1-yl)(2-(6-(2-ethyl-5-fluoro-4-hydroxyphenyl)-1H-indazol-3-yl)-5-isopropyl-4,5,6,7-tetrahydro-3H-imidazo[4,5-c]pyridin-6-yl)methanone, reference compound], for which, in “Lung S9 metabolism”, the “Compound Remaining at 60 min (%)” value is recorded as 6% and the “Sulfate Appearance” value is listed as “Yes”. Besides, the “binding site observed in co-crystal structure” value at human JAK1 is recorded as “bind in the ATP binding site”.

For `CCCN1Cc2[nH]c(-c3n[nH]c4cc(-c5ccc(O)cc5CC)ccc34)nc2C[C@H]1C(=O)N1CC(N(C)C)C1` [Compound 5, (S)-(3-(dimethylamino)azetidin-1-yl)(2-(6-(2-ethyl-4-hydroxyphenyl)-1H-indazol-3-yl)-5-propyl-4,5,6,7-tetrahydro-3H-imidazo[4,5-c]pyridin-6-yl)methanone], in the series “Lung S9 metabolism”, the “Compound Remaining at 60 min (%)” value was found to be 96% and the “Sulfate Appearance” value is on record as “Yes”.

Take `CCc1cc(O)c(F)cc1-c1ccc2c(-c3nc4c([nH]3)CN(CC)[C@H](C(=O)N3CC(N(C)C)C3)C4)n[nH]c2c1` [Compound C-2, (S)-(3-(dimethylamino)azetidin-1-yl)(5-ethyl-2-(6-(2-ethyl-5-fluoro-4-hydroxyphenyl)-1H-indazol-3-yl)-4,5,6,7-tetrahydro-3H-imidazo[4,5-c]pyridin-6-yl)methanone, reference compound]: in the series “Lung S9 metabolism”, the “Compound Remaining at 60 min (%)” value is 6% and the “Sulfate Appearance” value is recorded as “Yes”.

Regarding `CCc1cc(O)ccc1-c1ccc2c(-c3nc4c([nH]3)CN(CC)[C@H](C(=O)N3CC(N(C)C)C3)C4)n[nH]c2c1` [Compound 2, (S)-(3-(dimethylamino)azetidin-1-yl)(5-ethyl-2-(6-(2-ethyl-4-hydroxyphenyl)-1H-indazol-3-yl)-4,5,6,7-tetrahydro-3H-imidazo[4,5-c]pyridin-6-yl)methanone], in the series “Lung S9 metabolism”, the “Compound Remaining at 60 min (%)” value stood at 98% and the “Sulfate Appearance” value is given as “Yes”.

Regarding `CCc1cc(O)ccc1-c1ccc2c(-c3nc4c([nH]3)CN(C(C)C)[C@H](C(=O)N3CC(C)(N(C)C)C3)C4)n[nH]c2c1` [Compound 4, (S)-(3-(dimethylamino)-3-methylazetidin-1-yl)(2-(6-(2-ethyl-4-hydroxyphenyl)-1H-indazol-3-yl)-5-isopropyl-4,5,6,7-tetrahydro-3H-imidazo[4,5-c]pyridin-6-yl)methanone], in the series “Lung S9 metabolism”, the “Compound Remaining at 60 min (%)” value was 100% and the “Sulfate Appearance” value was “Yes”.

`CCCN1Cc2[nH]c(-c3n[nH]c4cc(-c5cc(F)c(O)cc5CC)ccc34)nc2C[C@H]1C(=O)N1CC(C)(N(C)C)C1` [Compound C-6, (S)-(3-(dimethylamino)-3-methylazetidin-1-yl)(2-(6-(2-ethyl-5-fluoro-4-hydroxyphenyl)-1H-indazol-3-yl)-5-propyl-4,5,6,7-tetrahydro-3H-imidazo[4,5-c]pyridin-6-yl)methanone, reference compound]: in “Lung S9 metabolism”, the “Compound Remaining at 60 min (%)” value amounted to 4% and the “Sulfate Appearance” value was “Yes”.

`CCc1cc(O)c(F)cc1-c1ccc2c(-c3nc4c([nH]3)CN(CC)[C@H](C(=O)N3CC(C)(N(C)C)C3)C4)n[nH]c2c1` [Compound C-3, (S)-(3-(dimethylamino)-3-methylazetidin-1-yl)(5-ethyl-2-(6-(2-ethyl-5-fluoro-4-hydroxyphenyl)-1H-indazol-3-yl)-4,5,6,7-tetrahydro-3H-imidazo[4,5-c]pyridin-6-yl)methanone, reference compound]: in the series “Lung S9 metabolism”, the “Compound Remaining at 60 min (%)” value is 5% and the “Sulfate Appearance” value is on record as “Yes”.

For `CCc1cc(O)ccc1-c1ccc2c(-c3nc4c([nH]3)CN(C(C)C)[C@H](C(=O)N3CC(N(C)C)C3)C4)n[nH]c2c1` [Compound 1, (S)-(3-(dimethylamino)azetidin-1-yl)(2-(6-(2-ethyl-4-hydroxyphenyl)-1H-indazol-3-yl)-5-isopropyl-4,5,6,7-tetrahydro-3H-imidazo[4,5-c]pyridin-6-yl)methanone], in the series “Lung S9 metabolism”, the “Compound Remaining at 60 min (%)” value is listed as 81% and the “Sulfate Appearance” value is on record as “Yes”. Further, in series [1], the “Plasma AUC(0-24)” value stood at 0.943 µg·h/mL. The “inhibition of IFNγ secretion in mixed lymphocyte reaction (in words)” value in series [2] is recorded as “effectively inhibit IFNγ secretion”.

Consider `CCCN1Cc2[nH]c(-c3n[nH]c4cc(-c5ccc(O)cc5CC)ccc34)nc2C[C@H]1C(=O)N1CC(C)(N(C)C)C1` [Compound 6, (S)-(3-(dimethylamino)-3-methylazetidin-1-yl)(2-(6-(2-ethyl-4-hydroxyphenyl)-1H-indazol-3-yl)-5-propyl-4,5,6,7-tetrahydro-3H-imidazo[4,5-c]pyridin-6-yl)methanone], for which, in the series “Lung S9 metabolism”, the “Compound Remaining at 60 min (%)” value was 90% and the “Sulfate Appearance” value is “Yes”.

On to `CCc1cc(O)c(F)cc1-c1ccc2c(-c3nc4c([nH]3)CN(C(C)C)[C@H](C(=O)N3CC(C)(N(C)C)C3)C4)n[nH]c2c1` [Compound C-4, (S)-(3-(dimethylamino)-3-methylazetidin-1-yl)(2-(6-(2-ethyl-5-fluoro-4-hydroxyphenyl)-1H-indazol-3-yl)-5-isopropyl-4,5,6,7-tetrahydro-3H-imidazo[4,5-c]pyridin-6-yl)methanone, reference compound], for which, in “Lung S9 metabolism”, the “Compound Remaining at 60 min (%)” value was 4% and the “Sulfate Appearance” value is “Yes”.

In the case of `CCCN1Cc2[nH]c(-c3n[nH]c4cc(-c5cc(F)c(O)cc5CC)ccc34)nc2C[C@H]1C(=O)N1CC(N(C)C)C1` [Compound C-5, (S)-(3-(dimethylamino)azetidin-1-yl)(2-(6-(2-ethyl-5-fluoro-4-hydroxyphenyl)-1H-indazol-3-yl)-5-propyl-4,5,6,7-tetrahydro-3H-imidazo[4,5-c]pyridin-6-yl)methanone, reference compound], in “Lung S9 metabolism”, the “Compound Remaining at 60 min (%)” value is listed as 5% and the “Sulfate Appearance” value is recorded as “Yes”.

The values above are taken from patent US11634419B2, “Dimethyl amino azetidine amides as JAK inhibitors” (THERAVANCE BIOPHARMA R&D IP, LLC, priority 2018, dated 2023).
